Species: Rattus norvegicus
Assay: Open TG-GATES - Regimen: Single
Type: toxicity, organism-based, Sprague-Dawley
Design: regimen Single, gender Male, age 6 weeks
Conditions: in vivo, po, 0 mg/kg, route gavage, dose level Control; for APTT / Bas / Eos / Fbg / Hb / Ht / Lym / MCH / MCHC / MCV / Mono / Neu / PT / Plat / RBC / Ret / WBC: tissue Blood; for ALP / ALT / AST / BUN / CRE / DBIL / GLC / IP / K / Na / PL / RALB / TBIL / TC / TG / TP / gamma-GTP: tissue Plasma

## NS(=O)(=O)c1cc(C(=O)O)c(NCc2ccco2)cc1Cl [FUROSEMIDE]
3 h
  TERMINAL_BW: 205.5 g
  APTT: 15.8 s
  Bas: 0%
  Eos: 0.8%
  Fbg: 270 mg/dL
  Hb: 13.2 g/dL
  Ht: 39.9%
  Lym: 78.2%
  MCH: 21.5 pg
  MCHC: 33.2%
  MCV: 64.8 fL
  Mono: 2.8%
  Neu: 17.2%
  PT: 15.6 s
  Plat: 115.8 x10_4/uL
  RBC: 615.6 x10_4/ul
  Ret: 7.3%
  WBC: 70.5 x10_2/uL
  ALP: 1448.8 IU/L
  ALT: 40.4 IU/L
  AST: 76.2 IU/L
  BUN: 10.2 mg/dL
  CRE: 0.2 mg/dL
  DBIL: 0.01 mg/dL
  GLC: 172.8 mg/dL
  IP: 9 mg/dL
  K: 4 meq/L
  Na: 142.4 meq/L
  PL: 137.6 mg/dL
  RALB: 2.5 g/dL
  TBIL: 0.058 mg/dL
  TC: 72.2 mg/dL
  TG: 61.6 mg/dL
  TP: 5.4 g/dL
  gamma-GTP: 0.6 IU/L
6 h
  TERMINAL_BW: 207.5 g
  APTT: 16.5 s
  Bas: 0%
  Eos: 1.2%
  Fbg: 313.6 mg/dL
  Hb: 13.1 g/dL
  Ht: 39.4%
  Lym: 75.8%
  MCH: 21.2 pg
  MCHC: 33.1%
  MCV: 63.9 fL
  Mono: 2.8%
  Neu: 19.4%
  PT: 15.3 s
  Plat: 122.5 x10_4/uL
  RBC: 617.2 x10_4/ul
  Ret: 8%
  WBC: 72.8 x10_2/uL
  ALP: 1332.6 IU/L
  ALT: 39 IU/L
  AST: 70.6 IU/L
  BUN: 11 mg/dL
  CRE: 0.2 mg/dL
  DBIL: 0.012 mg/dL
  GLC: 173.8 mg/dL
  IP: 9.7 mg/dL
  K: 3.9 meq/L
  Na: 142.2 meq/L
  PL: 143.2 mg/dL
  RALB: 2.6 g/dL
  TBIL: 0.062 mg/dL
  TC: 80.4 mg/dL
  TG: 48.8 mg/dL
  TP: 5.5 g/dL
  gamma-GTP: 0.8 IU/L
9 h
  TERMINAL_BW: 206.6 g
  APTT: 19.4 s
  Bas: 0%
  Eos: 0.8%
  Fbg: 294.4 mg/dL
  Hb: 13 g/dL
  Ht: 39%
  Lym: 79.6%
  MCH: 20.7 pg
  MCHC: 33.2%
  MCV: 62.4 fL
  Mono: 2.2%
  Neu: 17%
  PT: 15.3 s
  Plat: 108.3 x10_4/uL
  RBC: 625.6 x10_4/ul
  Ret: 7.8%
  WBC: 70.5 x10_2/uL
  ALP: 1206 IU/L
  ALT: 40.8 IU/L
  AST: 68.2 IU/L
  BUN: 9 mg/dL
  CRE: 0.2 mg/dL
  DBIL: 0.01 mg/dL
  GLC: 182.8 mg/dL
  IP: 10.2 mg/dL
  K: 4 meq/L
  Na: 144.2 meq/L
  PL: 142 mg/dL
  RALB: 2.6 g/dL
  TBIL: 0.066 mg/dL
  TC: 79 mg/dL
  TG: 35.8 mg/dL
  TP: 5.6 g/dL
  gamma-GTP: 0.8 IU/L
24 h
  TERMINAL_BW: 222.4 g
  APTT: 16.2 s
  Bas: 0%
  Eos: 1%
  Fbg: 270.8 mg/dL
  Hb: 13.1 g/dL
  Ht: 39.3%
  Lym: 74.2%
  MCH: 21.3 pg
  MCHC: 33.3%
  MCV: 64.1 fL
  Mono: 3.2%
  Neu: 20.6%
  PT: 15.9 s
  Plat: 116.4 x10_4/uL
  RBC: 613.6 x10_4/ul
  Ret: 7.6%
  WBC: 104.1 x10_2/uL
  ALP: 1714.2 IU/L
  ALT: 47.4 IU/L
  AST: 73.4 IU/L
  BUN: 15.4 mg/dL
  CRE: 0.2 mg/dL
  DBIL: 0.014 mg/dL
  GLC: 182.4 mg/dL
  IP: 8.4 mg/dL
  K: 4.2 meq/L
  Na: 141.6 meq/L
  PL: 156 mg/dL
  RALB: 2.6 g/dL
  TBIL: 0.052 mg/dL
  TC: 81.6 mg/dL
  TG: 72.8 mg/dL
  TP: 5.7 g/dL
  gamma-GTP: 0.8 IU/L

From ChEMBL document CHEMBL3885861, “Open TG-GATES”
